Data reported in ChEMBL document CHEMBL4002544, “Design, synthesis and cytotoxic activity of certain novel chalcone analogous compounds” (Eur J Med Chem, 2017).

Tests used:
MCF7 [1] = experiment: Antiproliferative activity against human MCF7 cells after 48 hrs by SRB assay; assay type: functional, cell-based; settings: MCF7, 48 h
HepG2 = experiment: Antiproliferative activity against human HepG2 cells after 48 hrs by SRB assay; assay type: functional, cell-based; settings: HepG2, 48 h
[2] = Selectivity ratio of IC50 for mouse AML-12 cells to IC50 for human HepG2 cells
MCF7 [3] = experiment: Potency index, ratio of colchicine IC50 to compound IC50 for human MCF7 cells; assay type: functional
[4] = Cytotoxicity against mouse AML-12 cells by MTT assay; assay type: cell-based; settings: AML12
[5] = biological target: Tubulin beta-5 chain (Homo sapiens) (UniProt P07437); experiment: Inhibition of tubulin beta polymerization in human HepG2 cells after 18 to 24 hrs by spectrophotometric method relative to control; assay type: cell-based; set-up: concentration or dose not given beside the values; settings: concentration not given here
[6] = Selectivity ratio of IC50 for human Hs 371.T cells to IC50 for human MCF7 cells
[7] = biological target: Tubulin beta-5 chain (Homo sapiens) (UniProt P07437); experiment: Inhibition of tubulin beta polymerization in human MCF7 cells after 18 to 24 hrs by spectrophotometric method relative to control; assay type: cell-based; set-up: concentration or dose not given beside the values; settings: concentration not given here
[8] = Cytotoxicity against human Hs 371.T cells by MTT assay; assay type: cell-based

Tubulin beta-5 chain (Homo sapiens), sequence (P07437 whole entry): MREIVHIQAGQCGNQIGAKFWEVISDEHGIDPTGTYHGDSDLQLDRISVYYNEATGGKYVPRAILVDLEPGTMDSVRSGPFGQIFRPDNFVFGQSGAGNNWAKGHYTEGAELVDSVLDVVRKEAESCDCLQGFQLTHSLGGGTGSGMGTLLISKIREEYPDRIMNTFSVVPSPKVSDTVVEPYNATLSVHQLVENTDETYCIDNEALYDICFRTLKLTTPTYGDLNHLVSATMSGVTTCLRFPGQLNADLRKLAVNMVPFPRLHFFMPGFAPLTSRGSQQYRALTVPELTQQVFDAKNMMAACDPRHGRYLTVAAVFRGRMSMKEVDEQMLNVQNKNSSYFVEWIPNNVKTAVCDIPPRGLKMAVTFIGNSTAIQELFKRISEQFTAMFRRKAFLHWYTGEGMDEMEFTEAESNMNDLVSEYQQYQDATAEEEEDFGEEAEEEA

SMILES | IC50 (MCF7 [1]) | IC50 (HepG2) | Ratio IC50 [2] | Ratio IC50 (MCF7 [3]) | IC50 [4] | inhibition [5] | Ratio IC50 [6] | inhibition [7] | IC50 [8]
COc1ccc(C2=NN(c3ccccc3)C(c3ccc(OC)cc3)C2O)cc1 (stereo unspecified) | 19 nM | 10.2 nM |  |  |  |  |  |  | 
COc1cc(C2=CC(c3ccc(Br)cc3)NC(=S)N2)cc(OC)c1OC (stereo unspecified) | 77 nM | 9.5 nM | 2.5 - 9 | 2 | 59.4 nM | 92.8% |  |  | 
COc1cccc(C2=NN(c3ccccc3)C(c3ccc(Cl)cc3)C2O)c1 (stereo unspecified) | 9.7 nM | 11 nM | 2.5 - 9 |  | 74.1 nM | 93% | 2.5 - 9 | 92.3% | 86.7 nM
COc1cc(C2=CC(c3ccc(F)cc3)NC(=S)N2)cc(OC)c1OC (stereo unspecified) | 125 nM | 61.9 nM |  | 2 |  |  |  |  | 
COc1cccc(C(=O)C2SC2c2ccc(Br)cc2)c1 (stereo unspecified) | 23 nM | 11 nM |  |  |  | 85.7% |  |  | 
COc1cccc(C(=O)C2OC2c2ccc(F)cc2)c1 (stereo unspecified) | 14 nM | 17 nM |  | 10 |  |  |  | 88.4% | 
COc1ccc(C2=NN(c3ccccc3)C(c3ccc(F)cc3)C2O)cc1 (stereo unspecified) | 16 nM | 13 nM |  |  |  |  |  |  | 
COc1cc2c(c(OC)c1OC)-c1ccc(OC)c(=O)cc1[C@@H](NC(C)=O)CC2 [COLCHICINE] | 150 nM | 124 nM |  |  | 138 nM |  |  |  | 443 nM
COc1cc(C2=CC(c3ccc(Cl)cc3)NC(=S)N2)cc(OC)c1OC (stereo unspecified) | 120 nM | 11 nM | 2.5 - 9 | 2 | 88.5 nM | 92.4% |  |  | 
COc1cccc(C2=CC(c3ccc(Br)cc3)NC(=S)N2)c1 (stereo unspecified) | 135 nM | 34 nM |  | 2 |  |  |  |  | 
COc1cccc(C(=O)C2SC2c2ccc(Cl)cc2)c1 (stereo unspecified) | 15 nM | 13 nM |  |  |  | 88.6% |  | 89.3% | 
COc1ccc(C2C=C(c3cc(OC)c(OC)c(OC)c3)NC(=S)N2)cc1 (stereo unspecified) | 103 nM | 90 nM |  | 2 |  |  |  |  | 
COc1ccc(C2=CC(c3ccc(Br)cc3)NC(=S)N2)cc1 (stereo unspecified) | 126 nM | 30 nM |  | 2 |  | 91.4% |  |  | 
COc1cccc(C(=O)C(O)C(Nc2ccc(F)c(Cl)c2)c2ccc(Br)cc2)c1 (stereo unspecified) | 9.9 nM | 37.2 nM |  |  |  | 88.5% | 2.5 - 9 | 92.2% | 90.2 nM
COc1cccc(C2=NNC(c3ccc(Br)cc3)C2O)c1 (stereo unspecified) | 49 nM | 43 nM |  |  |  |  |  |  | 
COc1cccc(C2=NNC(c3ccc(Cl)cc3)C2O)c1 (stereo unspecified) | 49 nM | 35.3 nM |  |  |  |  |  |  | 
COc1cccc(C2=NN(c3ccccc3)C(c3ccc(Br)cc3)C2O)c1 (stereo unspecified) | 11 nM | 9.9 nM | 2.5 - 9 |  | 26.9 nM | 84.6% | 2.5 - 9 | 87.8% | 474 nM
COc1ccc(C(=O)C2OC2c2ccc(Cl)cc2)cc1 (stereo unspecified) | 26 nM | 15 nM |  |  |  |  |  |  | 
COc1cccc(C2=CC(c3ccc(Cl)cc3)NC(=S)N2)c1 (stereo unspecified) | 150 nM | 54 nM |  | 2 |  | 90.6% |  |  | 
